In ChEMBL document CHEMBL3112413, “Novel coumarin-dihydropyrazole thio-ethanone derivatives: design, synthesis and anticancer activity” (Eur J Med Chem, 2014):
The source made the active and inactive calls. No cut-off for these calls is given here.

Columns and labels:
MGC-803 [1] = assay: Cell cycle arrest in human MGC803 cells assessed as accumulation at G0/G1 phase at […] uM after 48 hrs using propidium iodide staining after 48 hrs by flow cytometer relative to control; assay type: functional
[2] = biological target: Telomerase reverse transcriptase (Homo sapiens, UniProt O14746); assay: Inhibition of telomerase in human MGC803 cell extracts after 24 hrs by TRAP-PCR-ELISA; design: species or system MGC-803
MGC-803 [3] = assay: Cytotoxicity against human MGC803 cells after 48 hrs by MTT assay; assay type: functional, cell-based; conditions: MGC-803, 48 h
[4] = Cytotoxicity against human SGC7901 cells after 48 hrs by MTT assay; assay type: functional, cell-based; conditions: SGC-7901, 48 h
[5] = biological target: DNA polymerase I, thermostable (Thermus aquaticus) (UniProt P19821); assay: Inhibition of Thermus aquaticus Taq polymerase at IC50 for telomerase inhibition after 15 mins using ethidium bromide staining by 2% agarose gel electrophoresis analysis
MGC-803 [6] = assay: Cell cycle arrest in human MGC803 cells assessed as accumulation at G2/M phase at […] uM after 48 hrs using propidium iodide staining after 48 hrs by flow cytometer relative to control; assay type: functional
HepG2 = assay: Cytotoxicity against human HepG2 cells after 48 hrs by MTT assay; assay type: functional, cell-based; conditions: HepG2, 48 h
Bcap37 = assay: Cytotoxicity against human Bcap37 cells after 48 hrs by MTT assay; assay type: functional, cell-based; conditions: Bcap37, 48 h
MGC-803 [7] = assay: Cell cycle arrest in human MGC803 cells assessed as accumulation at S phase at […] uM after 48 hrs using propidium iodide staining after 48 hrs by flow cytometer relative to control; assay type: functional
MGC-803 [8] = assay: Cell cycle arrest in human MGC803 cells assessed as accumulation at G0/G1 phase at 25 uM after 48 hrs using propidium iodide staining after 48 hrs by flow cytometer relative to control; assay type: functional
MGC-803 [9] = assay: Cell cycle arrest in human MGC803 cells assessed as accumulation at G2/M phase at 25 uM after 48 hrs using propidium iodide staining after 48 hrs by flow cytometer relative to control; assay type: functional
MGC-803 [10] = assay: Cell cycle arrest in human MGC803 cells assessed as accumulation at S phase at 25 uM after 48 hrs using propidium iodide staining after 48 hrs by flow cytometer relative to control; assay type: functional
MGC-803 [11] = assay: Cell cycle arrest in human MGC803 cells at 0.92 uM after 48 hrs using propidium iodide staining after 48 hrs by flow cytometer relative to control; assay type: functional

Chain of DNA polymerase I, thermostable (Thermus aquaticus) (P19821 whole entry): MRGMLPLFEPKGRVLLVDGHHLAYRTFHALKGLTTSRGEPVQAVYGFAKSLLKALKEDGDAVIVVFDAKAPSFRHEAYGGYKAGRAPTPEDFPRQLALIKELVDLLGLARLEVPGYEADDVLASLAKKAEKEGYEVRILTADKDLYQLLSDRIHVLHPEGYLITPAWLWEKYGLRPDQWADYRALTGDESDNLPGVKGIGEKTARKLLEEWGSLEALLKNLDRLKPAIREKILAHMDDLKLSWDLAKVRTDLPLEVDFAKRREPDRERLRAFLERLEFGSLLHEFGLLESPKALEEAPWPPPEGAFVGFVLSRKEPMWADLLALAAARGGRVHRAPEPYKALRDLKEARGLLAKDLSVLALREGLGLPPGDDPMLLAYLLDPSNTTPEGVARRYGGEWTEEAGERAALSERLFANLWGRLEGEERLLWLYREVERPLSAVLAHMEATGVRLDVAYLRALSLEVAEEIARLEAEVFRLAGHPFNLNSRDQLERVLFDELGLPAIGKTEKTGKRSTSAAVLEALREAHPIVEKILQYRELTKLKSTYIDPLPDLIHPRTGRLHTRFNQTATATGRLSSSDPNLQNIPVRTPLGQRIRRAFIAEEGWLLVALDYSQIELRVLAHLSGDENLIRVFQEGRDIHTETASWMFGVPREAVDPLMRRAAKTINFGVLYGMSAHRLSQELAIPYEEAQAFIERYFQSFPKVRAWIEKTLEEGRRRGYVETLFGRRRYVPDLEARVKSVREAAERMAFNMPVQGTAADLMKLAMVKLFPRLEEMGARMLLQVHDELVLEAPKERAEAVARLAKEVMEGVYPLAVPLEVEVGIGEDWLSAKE
Chain of Telomerase reverse transcriptase (O14746 whole entry): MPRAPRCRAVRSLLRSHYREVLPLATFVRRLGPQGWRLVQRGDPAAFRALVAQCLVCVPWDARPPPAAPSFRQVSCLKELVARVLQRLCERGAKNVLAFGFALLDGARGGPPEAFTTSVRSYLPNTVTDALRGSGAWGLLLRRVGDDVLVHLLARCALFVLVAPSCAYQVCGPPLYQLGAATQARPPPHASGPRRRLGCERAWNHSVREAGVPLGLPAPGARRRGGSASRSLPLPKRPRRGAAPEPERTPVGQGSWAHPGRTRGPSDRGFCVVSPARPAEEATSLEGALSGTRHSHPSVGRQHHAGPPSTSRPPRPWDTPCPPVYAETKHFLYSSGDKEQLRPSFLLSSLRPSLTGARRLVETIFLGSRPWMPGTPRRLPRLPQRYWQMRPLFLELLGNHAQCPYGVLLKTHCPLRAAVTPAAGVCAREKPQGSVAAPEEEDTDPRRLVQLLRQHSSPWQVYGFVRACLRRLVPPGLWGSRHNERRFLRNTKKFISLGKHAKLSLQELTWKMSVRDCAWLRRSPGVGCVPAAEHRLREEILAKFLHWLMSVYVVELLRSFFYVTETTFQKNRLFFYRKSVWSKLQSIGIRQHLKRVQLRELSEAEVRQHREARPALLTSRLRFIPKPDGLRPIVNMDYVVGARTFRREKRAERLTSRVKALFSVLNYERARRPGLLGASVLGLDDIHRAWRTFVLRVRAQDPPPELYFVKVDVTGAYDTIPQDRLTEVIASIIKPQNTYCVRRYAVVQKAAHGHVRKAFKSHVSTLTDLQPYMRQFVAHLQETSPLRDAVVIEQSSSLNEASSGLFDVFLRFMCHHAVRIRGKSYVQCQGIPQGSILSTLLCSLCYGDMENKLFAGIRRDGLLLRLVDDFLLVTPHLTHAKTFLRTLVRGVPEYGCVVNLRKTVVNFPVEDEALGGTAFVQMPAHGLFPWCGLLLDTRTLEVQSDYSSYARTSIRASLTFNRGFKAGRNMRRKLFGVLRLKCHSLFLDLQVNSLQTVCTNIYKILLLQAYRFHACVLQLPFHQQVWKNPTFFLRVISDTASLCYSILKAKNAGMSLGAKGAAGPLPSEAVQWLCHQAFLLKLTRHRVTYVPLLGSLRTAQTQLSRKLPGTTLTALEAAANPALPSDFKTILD

## CCCSCC(=O)N1N=C(C)C[C@@H]1c1cc(Br)cc(Br)c1O
MGC-803 [1]
  Activity: 47.2%
[2]
  IC50: 1.04 µM
MGC-803 [3]
  IC50: 2.97 µM
[4]
  IC50: 2.3 µM
[5]
  inhibition: inactive
MGC-803 [6]
  Activity: 25.2%
HepG2
  IC50: 4 µM
Bcap37
  IC50: 3.24 µM
MGC-803 [7]
  Activity: 30.1%

## CCCCSCC(=O)N1N=C(c2cc3ccccc3oc2=O)C[C@@H]1c1ccccc1
MGC-803 [3]
  IC50: 12.8 µM
[4]
  IC50: 7.3 µM
HepG2
  IC50: 6.64 µM
Bcap37
  IC50: 9.7 µM

## O=C(CSc1ncccn1)N1N=C(c2cc3ccccc3oc2=O)C[C@@H]1c1ccc(C(F)(F)F)cc1
MGC-803 [3]
  IC50: 2.89 µM
[4]
  IC50: 4.39 µM
HepG2
  IC50: 4.75 µM
Bcap37
  IC50: 3.77 µM

## C/C(=C\C(=O)Nc1ccccc1C(=O)O)c1ccc2ccccc2c1
[2]
  IC50: 0.28 µM

## O=C(CSc1ccc(Br)cc1)N1N=C(c2cc3ccccc3oc2=O)C[C@@H]1c1ccc(C(F)(F)F)cc1
[2]
  IC50: 25.1 µM
MGC-803 [3]
  IC50: 10.8 µM
[4]
  IC50: 12.1 µM
[5]
  inhibition: inactive
HepG2
  IC50: 12.7 µM
Bcap37
  IC50: 7.99 µM

## O=C(CSc1ccc(Br)cc1)N1N=C(c2cc3ccccc3oc2=O)C[C@@H]1c1ccccc1C(F)(F)F
MGC-803 [3]
  IC50: 21.3 µM
[4]
  IC50: 14.7 µM
HepG2
  IC50: 17.9 µM
Bcap37
  IC50: 10.3 µM

## CC1=NN(C(=O)CSc2nc3ccccc3s2)[C@@H](c2cc(Br)cc(Br)c2O)C1
[2]
  IC50: 4.65 µM
MGC-803 [3]
  IC50: 7.8 µM
[4]
  IC50: 12.3 µM
HepG2
  IC50: 8.7 µM
Bcap37
  IC50: 9.7 µM

## COC(=O)CSCC(=O)N1N=C(C)C[C@@H]1c1cc(Br)cc(Br)c1O
[2]
  IC50: 1.19 µM
MGC-803 [3]
  IC50: 2.27 µM
[4]
  IC50: 3.3 µM
[5]
  inhibition: inactive
HepG2
  IC50: 2.95 µM
Bcap37
  IC50: 3.7 µM

## O=C(CSc1ccc([N+](=O)[O-])cc1)N1N=C(c2cc3ccccc3oc2=O)C[C@@H]1c1ccc(C(F)(F)F)cc1
MGC-803 [3]
  IC50: 10.2 µM
[4]
  IC50: 8.51 µM
HepG2
  IC50: 7.76 µM
Bcap37
  IC50: 16.5 µM

## CC1=NN(C(=O)CSc2ccccc2)[C@@H](c2cc(Br)cc(Br)c2O)C1
MGC-803 [3]
  IC50: 12.7 µM
[4]
  IC50: 24.1 µM
HepG2
  IC50: 10.3 µM
Bcap37
  IC50: 13.1 µM

## O=C(CSCc1ccco1)N1N=C(c2cc3ccccc3oc2=O)C[C@@H]1c1ccccc1C(F)(F)F
MGC-803 [3]
  IC50: 15.7 µM
[4]
  IC50: 10.2 µM
HepG2
  IC50: 18 µM
Bcap37
  IC50: 10.3 µM

## O=C(CSCc1ccco1)N1N=C(c2cc3ccccc3oc2=O)C[C@@H]1c1ccc(C(F)(F)F)cc1
MGC-803 [3]
  IC50: 15.2 µM
[4]
  IC50: 9.74 µM
HepG2
  IC50: 11.2 µM
Bcap37
  IC50: 12 µM

## O=c1cc(N2CCOCC2)oc2c(-c3ccccc3)cccc12 [LY-294002]
MGC-803 [8]
  Activity: 50.5%
MGC-803 [9]
  Activity: 22.4%
MGC-803 [10]
  Activity: 27.1%

## CC1=NN(C(=O)CSc2ccccn2)[C@@H](c2cc(Br)cc(Br)c2O)C1
MGC-803 [3]
  IC50: 12.3 µM
[4]
  IC50: 10.3 µM
HepG2
  IC50: 24.7 µM
Bcap37
  IC50: 16.7 µM

## O=c1[nH]cc(F)c(=O)[nH]1 [FLUOROURACIL]
MGC-803 [3]
  IC50: 3.68 µM
[4]
  IC50: 7.37 µM
HepG2
  IC50: 4.35 µM
Bcap37
  IC50: 5.58 µM

## CC[n+]1c(-c2ccccc2)c2cc(N)ccc2c2ccc(N)cc21 [HOMIDIUM BROMIDE]
[2]
  IC50: 2.1 µM

## CCCCSCC(=O)N1N=C(c2cc3ccccc3oc2=O)C[C@@H]1c1ccccc1C(F)(F)F
[2]
  IC50: 2 µM
MGC-803 [3]
  IC50: 3.14 µM
[4]
  IC50: 4.42 µM
[5]
  inhibition: inactive
HepG2
  IC50: 5.01 µM
Bcap37
  IC50: 9.73 µM

## CCCCSCC(=O)N1N=C(c2cc3ccccc3oc2=O)C[C@@H]1c1ccc(C(F)(F)F)cc1
[2]
  IC50: 0.92 µM
MGC-803 [3]
  IC50: 2.35 µM
[4]
  IC50: 2.91 µM
[5]
  inhibition: inactive
HepG2
  IC50: 8.68 µM
Bcap37
  IC50: 3.55 µM
MGC-803 [11]
  Activity: 66%

## O=C(CSc1ncccn1)N1N=C(c2cc3ccccc3oc2=O)C[C@@H]1c1ccccc1C(F)(F)F
[2]
  IC50: 8.89 µM
MGC-803 [3]
  IC50: 4 µM
[4]
  IC50: 4.97 µM
[5]
  inhibition: inactive
HepG2
  IC50: 6.54 µM
Bcap37
  IC50: 4.09 µM

## O=C(CSc1ccccc1)N1N=C(c2cc3ccccc3oc2=O)C[C@@H]1c1ccccc1
MGC-803 [3]
  IC50: 22.8 µM
[4]
  IC50: 20.3 µM
HepG2
  IC50: 16.3 µM
Bcap37
  IC50: 14.8 µM

## O=C(CSc1ccc(Br)cc1)N1N=C(c2cc3ccccc3oc2=O)C[C@@H]1c1ccccc1
MGC-803 [3]
  IC50: 16.8 µM
[4]
  IC50: 14.3 µM
HepG2
  IC50: 14.5 µM
Bcap37
  IC50: 13 µM

## O=C(CSc1ccc([N+](=O)[O-])cc1)N1N=C(c2cc3ccccc3oc2=O)C[C@@H]1c1ccccc1C(F)(F)F
MGC-803 [3]
  IC50: 7.58 µM
[4]
  IC50: 9.77 µM
HepG2
  IC50: 7.7 µM
Bcap37
  IC50: 10.8 µM

## CC1=NN(C(=O)CSc2ccc(Br)cc2)[C@@H](c2cc(Br)cc(Br)c2O)C1
MGC-803 [3]
  IC50: 12.8 µM
[4]
  IC50: 8.21 µM
HepG2
  IC50: 6.87 µM
Bcap37
  IC50: 3.2 µM
